According to ChEMBL document CHEMBL5500324, “The potential of marine-derived piperazine alkaloids: Sources, structures and bioactivities” (Eur J Med Chem, 2024):
Values after ≈ are worked out from the molar mass of the structure shown.

Tests used:
[1] = test system: HCT-116; assay: Antiproliferative activity against human HCT-116 cells assessed as reduction in cell viability incubated for 24 hrs by MTT assay; assay type: functional, cell-based; conditions: HCT-116, 24 h
[2] = test system: NCI-H460; assay: Cytotoxicity against human NCI-H460 cells assessed as reduction in cell viability incubated for 48 hrs by MTT assay; assay type: functional, cell-based; conditions: NCI-H460, 48 h
[3] = test system: NCI-H23; assay: Cytotoxicity against human NCI-H23 cells assessed as reduction in cell viability incubated for 48 hrs by MTT assay; assay type: functional, cell-based; conditions: NCI-H23, 48 h
[4] = test system: A549; assay: Cytotoxicity against human A549 cells assessed as reduction in cell viability measured after 24 hrs by MTT assay; assay type: functional, cell-based; conditions: A549, 24 h
[5] = Cytotoxicity against human BEAS-2B cells incubated for 72 hrs measured by MTT assay; assay type: toxicity, cell-based
[6] = test system: QG-56; assay: Cytotoxicity against human QG-56 cells assessed as reduction in cell growth incubated for 24 hrs by MTT assay; assay type: functional, cell-based; conditions: QG-56, 24 h
[7] = test system: DU-145; assay: Cytotoxicity against human DU-145 cells assessed as cell growth inhibition measured after 48 hrs by MTT assay; assay type: functional, cell-based; conditions: DU-145, 48 h
[8] = test system: HeLa; assay: Cytotoxicity against human HeLa cells assessed as reduction in cell viability measured for 24 hrs by MTT assay; assay type: functional, cell-based
[9] = test system: K562; assay: Antiproliferative activity against human K562 cells assessed as reduction in cell growth incubated for 72 hrs by MTT assay; assay type: functional, cell-based; conditions: K562, 72 h
[10] = test system: HL-60; assay: Antiproliferative activity against human HL-60 cells assessed as reduction in cell growth incubated for 72 hrs by MTT assay; assay type: functional, cell-based; conditions: HL-60, 72 h
[11] = test system: BGC-823; assay: Cytotoxicity against human BGC-823 cells assessed as reduction in cell growth measured after 72 hrs by MTT assay; assay type: functional, cell-based; conditions: BGC-823, 72 h
[12] = test system: MCF7; assay: Cytotoxicity against human MCF7 cells assessed as reduction in cell growth measured after 72 hrs by MTT assay; assay type: functional, cell-based; conditions: MCF7, 72 h
[13] = test system: P388; assay: Cytotoxicity against mouse P388 cells assessed as cell growth inhibition; assay type: functional; conditions: read-out: ED50 (the source's name)
[14] = test system: MCF7; assay: Cytotoxicity against human MCF7 cells assessed as reduction in cell viability; assay type: functional, cell-based
[15] = test system: MKN-1; assay: Cytotoxicity against human MKN-1 cells assessed as reduction in cell viability; assay type: functional, cell-based
[16] = test system: ECV-304; assay: Cytotoxicity against human ECV-304 cells; assay type: functional, cell-based
[17] = test system: NCI-H929; assay: Cytotoxicity against human NCI-H929 cells; assay type: functional, cell-based
[18] = test system: CAL-27; assay: Cytotoxicity against human CAL-27 cells; assay type: functional, cell-based
[19] = test system: A549; assay: Cytotoxicity against human A549 cells; assay type: functional, cell-based
[20] = test system: P388; assay: Cytotoxicity against mouse P388 cells assessed as inhibition of cell growth; assay type: functional, cell-based
[21] = test system: A549; assay: Cytotoxicity against human A549 cells assessed as inhibition of cell growth; assay type: functional, cell-based
[22] = test system: HT-29; assay: Cytotoxicity against human HT-29 cells assessed as inhibition of cell growth; assay type: functional, cell-based
[23] = test system: SK-MEL-28; assay: Cytotoxicity against human SK-MEL-28 cells assessed as inhibition of cell growth; assay type: functional, cell-based
[24] = test system: SF-268; assay: Cytotoxicity against human SF-268 cells assessed as reduction in cell viability incubated for 72 hrs by SRB assay; assay type: functional, cell-based; conditions: SF-268, 72 h
[25] = test system: HepG2; assay: Cytotoxicity against human HepG2 cells assessed as reduction in cell viability incubated for 72 hrs by SRB assay; assay type: functional, cell-based; conditions: HepG2, 72 h
[26] = test system: L1210; assay: Cytotoxicity against mouse L1210 cells assessed as reduction in cell growth; assay type: functional; conditions: read-out: ED50 (the source's name)
[27] = test system: A549; assay: Cytotoxicity against human A549 cells assessed as reduction in cell viability by MTT assay; assay type: functional, cell-based
[28] = test system: HGC-27; assay: Cytotoxicity against human HGC-27 cells assessed as reduction in cell viability by MTT assay; assay type: functional, cell-based
[29] = test system: UMUC3; assay: Cytotoxicity against human UMUC3 cells assessed as reduction in cell viability by MTT assay; assay type: functional, cell-based
[30] = test system: P388; assay: Anticancer activity against mouse P388 cells assessed as inhibition of cell growth; assay type: functional; conditions: read-out: ED50 (the source's name)
[31] = test system: BXPC-3; assay: Growth inhibition of human BXPC-3 cells assessed as reduction in cell viability measured after 3 days by CCK-8 assay; assay type: functional; conditions: BXPC-3, 72 h, time 3 day
[32] = test system: MCF7; assay: Growth inhibition of human MCF7 cells; assay type: functional
[33] = test system: SF-268; assay: Growth inhibition of human SF-268 cells; assay type: functional
[34] = test system: NCI-H460; assay: Growth inhibition of human NCI-H460 cells; assay type: functional
[35] = test system: DU-145; assay: Growth inhibition of human DU-145 cells; assay type: functional
[36] = test system: SK-N-SH; assay: Growth inhibition of human SK-N-SH cells; assay type: functional
[37] = test system: SW-1736; assay: Growth inhibition of human SW-1736 cells; assay type: functional
[38] = test system: FaDu; assay: Growth inhibition of human FaDu cells; assay type: functional
[39] = test system: KM-20L2; assay: Growth inhibition of human KM-20L2 cells; assay type: functional
[40] = test system: BC; assay: Cytotoxicity against human BC cells assessed as inhibition of cell growth; assay type: functional, cell-based
[41] = test system: KB; assay: Cytotoxicity against human KB cells assessed as inhibition of cell growth; assay type: functional, cell-based

Question: Which IC50 [1] does the source give for `COC1=C(C)C(=O)C2=C(C1=O)[C@@H]1[C@@H]3CC4=C(C(=O)C(OC)=C(C)C4=O)[C@H](CO)N3[C@@H](C#N)[C@H](C2)N1C` [JOURNNAMYCIN A] here?
Answer: 0.013 µM

Question: What about the IC50 [2] of the same molecule?
Answer: 8 µM

Question: What about the IC50 [3] of the same molecule?
Answer: 2.3 µM

Question: What about the IC50 [4] of the same molecule?
Answer: 3.1 µM

Question: What about the IC50 at 72 h [5] of the same molecule?
Answer: 14.8 µM

Question: What about the IC50 [6] of the same molecule?
Answer: 0.059 µM

Question: And the IC50 [7]?
Answer: 0.029 µM

Question: For `C=CC(C)(C)[C@@]12C[C@H]3C(=O)N[C@@H](Cc4ccccc4)C(=O)N3[C@@H]1N([C@H]1O[C@]3(C[C@@H]1NC(=O)/C=C/C(C)CC(C)CCCCCC)[C@@H]1O[C@@H]1[C@](O)(CC(C)=O)[C@@H]1O[C@@H]13)c1ccccc12` (stereo not given in full), which IC50 [8] is on record?
Answer: 9.5 µM

Question: What about the IC50 [9] of the same molecule?
Answer: 11.4 µM

Question: And the IC50 [10]?
Answer: 5.4 µM

Question: What about the IC50 [11] of the same molecule?
Answer: 8 µM

Question: What about the IC50 [12] of the same molecule?
Answer: 5.4 µM

Question: For `CS[C@H]1C(=O)N2[C@H]3Nc4ccccc4[C@@]3(c3c[nH]c4ccccc34)C[C@]2(SC)C(=O)N1C`, which EC50 [13] is on record?
Answer: 20 µg/mL (≈ 43 µM)

Question: For `CO[C@H]1c2c([nH]c3ccccc23)[C@H](C=C(C)C)N2C(=O)[C@@H]3CCCN3C(=O)[C@@]12O`, which IC50 [14] is on record?
Answer: 10.8 µM

Question: And the IC50 [15]?
Answer: 20.7 µM

Question: What does the source list for `COc1cc2c(cc1O)CCN[C@@]21CS[C@@H]2c3c(OC(C)=O)c(C)c4c(c3[C@H](COC1=O)N1[C@@H]2[C@H]2c3c(cc(C)c(OC)c3O)C[C@@H]([C@@H]1O)N2C)OCO4`?
Answer: IC50 [16]: 0.0016 µM; IC50 [17]: 0.0011 µM; IC50 [18]: 0.0009 µM; IC50 [19]: 0.0015 µM; IC50 [20]: 0.2 µM; IC50 [21]: 0.0002 µg/mL (≈ 0.000263 µM); IC50 [22]: 0.0005 µg/mL (≈ 0.000656 µM); IC50 [23]: 0.005 µg/mL (≈ 0.00656 µM)

Question: With `C=CC(C)(C)c1[nH]c2ccccc2c1/C=C1\NC(=O)[C@@]2(CC[C@@]3(O)c4cc(OC)cc(O)c4C(=O)c4c(O)cc(C)c2c43)NC1=O` as the molecule, how does the IC50 [24] read?
Answer: 12.5 µM

Question: And the IC50 [25]?
Answer: 15 µM

Question: Which EC50 [26] does the source give for `CN1C[C@H](c2c[nH]c3cc(Br)ccc23)NC[C@H]1c1c[nH]c2cc(Br)ccc12` here?
Answer: 10 µg/mL (≈ 20.5 µM)

Question: With `CC(C)C[C@H]1NC(=O)[C@H](CCC(N)=O)n2c1nc1ccccc1c2=O` as the molecule, how does the IC50 [27] read?
Answer: 6 µM

Question: What about the IC50 [28] of the same molecule?
Answer: 6.2 µM

Question: And the IC50 [29]?
Answer: 7.2 µM

Question: Which EC50 [13] does the source give for `CS[C@H]1C(=O)N2[C@H]3Nc4ccccc4[C@@]3(c3c[nH]c4ccccc34)[C@H](O)[C@]2(SC)C(=O)N1C` [BIONECTIN C] here?
Answer: 6.5 µg/mL (≈ 13.5 µM)

Question: Which EC50 [30] does the source give for `CN1C(=O)N[C@H]2[C@@H]3NC(=O)c4ccc(Br)n4[C@@H]3C[C@]21O` [AGELASTATIN A] here?
Answer: 0.052 µg/mL (≈ 0.152 µM)

Question: And the GI50 [31]?
Answer: 0.089 µg/mL (≈ 0.261 µM)

Question: And the GI50 [32]?
Answer: 0.033 µg/mL (≈ 0.0967 µM)

Question: What about the GI50 [33] of the same molecule?
Answer: 0.038 µg/mL (≈ 0.111 µM)

Question: And the GI50 [34]?
Answer: 0.036 µg/mL (≈ 0.106 µM)

Question: What about the GI50 [35] of the same molecule?
Answer: 0.056 µg/mL (≈ 0.164 µM)

Question: What about the GI50 [36] of the same molecule?
Answer: 0.042 µg/mL (≈ 0.123 µM)

Question: What about the GI50 [37] of the same molecule?
Answer: 0.12 µg/mL (≈ 0.352 µM)

Question: What about the GI50 [38] of the same molecule?
Answer: 0.24 µg/mL (≈ 0.703 µM)

Question: What about the GI50 [39] of the same molecule?
Answer: 0.036 µg/mL (≈ 0.106 µM)

Question: With `COc1cc2c(cc1O)CCNC21CS[C@@H]2c3c(OC(C)=O)c(C)c4c(c3[C@H](COC1=O)N1[C@@H]2[C@H]2c3c(cc(C)c(OC)c3O)C[C@@H]([C@@H]1C#N)N2C)OCO4` (stereo not given in full) as the molecule, how does the IC50 [40] read?
Answer: 0.0025 µM

Question: What about the IC50 [1] of the same molecule?
Answer: 0.0004 µM

Question: What about the IC50 [41] of the same molecule?
Answer: 0.034 nM

Question: What about the IC50 [6] of the same molecule?
Answer: 0.0018 µM

Question: And the IC50 [7]?
Answer: 0.00066 µM
